Measured values reported in ChEMBL document CHEMBL4732245, “Synthesis and biological evaluation of novel 4,7-disubstituted coumarins as selective tumor-associated carbonic anhydrase IX and XII inhibitors” (Bioorg Med Chem Lett, 2021).
pKi: −log10 of the molar value.

Tests used:
Carbonic anhydrase 2 = Carbonic anhydrase 2 (Homo sapiens, UniProt P00918); test: Inhibition of recombinant human carbonic anhydrase 2 pre-incubated for 10 mins by stopped flow CO2 hydrase assay
Carbonic anhydrase 9 [1] = target: T1, Carbonic anhydrase 9 (Homo sapiens, UniProt Q16790); test: Inhibition of recombinant human carbonic anhydrase 9 preincubated for 10 mins by stopped flow CO2 hydrase assay
Carbonic anhydrase 1 = Carbonic anhydrase 1 (Homo sapiens, UniProt P00915); test: Inhibition of recombinant human carbonic anhydrase 1 pre-incubated for 10 mins by stopped flow CO2 hydrase assay
Sequence of Carbonic anhydrase 1 (P00915 whole entry): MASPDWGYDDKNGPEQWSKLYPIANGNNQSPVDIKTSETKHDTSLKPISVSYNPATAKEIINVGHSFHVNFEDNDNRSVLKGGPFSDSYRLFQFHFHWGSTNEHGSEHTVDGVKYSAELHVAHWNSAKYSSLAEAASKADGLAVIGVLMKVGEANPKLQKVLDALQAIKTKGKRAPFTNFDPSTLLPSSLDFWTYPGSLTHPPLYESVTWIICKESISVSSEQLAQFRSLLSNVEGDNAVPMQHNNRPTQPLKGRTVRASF

Carbonic anhydrase 12 = Carbonic anhydrase 12 (Homo sapiens, UniProt O43570); test: Inhibition of recombinant human carbonic anhydrase 12 preincubated for 6 hrs at 24 degC by stopped flow CO2 hydrase assay
Sequence of Carbonic anhydrase 12 (O43570 whole entry): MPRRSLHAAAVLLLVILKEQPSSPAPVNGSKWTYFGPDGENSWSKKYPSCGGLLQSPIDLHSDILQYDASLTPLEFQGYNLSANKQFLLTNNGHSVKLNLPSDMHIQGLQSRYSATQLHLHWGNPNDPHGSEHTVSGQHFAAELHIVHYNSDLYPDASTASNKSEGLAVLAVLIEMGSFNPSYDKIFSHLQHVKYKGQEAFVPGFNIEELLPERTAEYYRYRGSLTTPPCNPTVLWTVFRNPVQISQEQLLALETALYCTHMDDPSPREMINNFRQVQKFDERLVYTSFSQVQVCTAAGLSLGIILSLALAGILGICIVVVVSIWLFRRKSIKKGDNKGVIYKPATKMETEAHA

Carbonic anhydrase 9 [2] = target: T1, Carbonic anhydrase 9; test: Inhibition of recombinant human carbonic anhydrase 9 preincubated for 6 hrs at 24 degC by stopped flow CO2 hydrase assay

Row | SMILES | pKi (Carbonic anhydrase 2) | pKi (Carbonic anhydrase 9 [1]) | pKi (Carbonic anhydrase 1) | pKi (Carbonic anhydrase 12) | pKi (Carbonic anhydrase 9 [2])
1 | COc1cccc(COc2ccc3c(CN4CCN(Cc5ccccc5)CC4)cc(=O)oc3c2)c1 | < 4.00 | 5.31 | < 4.00 | – | –
2 | O=c1cc(CN2CCN(Cc3ccccc3)CC2)c2ccc(OCc3cccc(Br)c3)cc2o1 | < 4.00 | 6.07 | < 4.00 | – | –
3 | O=c1cc(CN2CCN(Cc3ccccc3)CC2)c2ccc(OCc3cc(F)ccc3F)cc2o1 | < 4.00 | 5.35 | < 4.00 | – | –
4 | COc1ccc(N2CCN(Cc3cc(=O)oc4cc(OCc5ccccc5F)ccc34)CC2)cc1 | < 4.00 | 5.41 | < 4.00 | – | –
5 | O=c1cc(CN2CCN(Cc3ccccc3)CC2)c2ccc(OCc3ccccc3[N+](=O)[O-])cc2o1 | < 4.00 | 6.03 | < 4.00 | – | –
6 | O=c1cc(CN2CCN(Cc3ccccc3)CC2)c2ccc(OCc3ccc(Br)cc3)cc2o1 | < 4.00 | – | < 4.00 | – | –
7 | COc1ccc(CSc2nnc(COc3ccc4c(C)cc(=O)oc4c3)o2)cc1 | – | 5.63 | – | – | –
8 | O=c1cc(CN2CCN(Cc3ccccc3)CC2)c2ccc(OCc3ccccc3F)cc2o1 | < 4.00 | 6.04 | < 4.00 | – | –

Continued, values first:

Row | pKi (Carbonic anhydrase 2) | pKi (Carbonic anhydrase 9 [1]) | pKi (Carbonic anhydrase 1) | pKi (Carbonic anhydrase 12) | pKi (Carbonic anhydrase 9 [2]) | SMILES
9 | < 4.00 | 5.27 | < 4.00 | – | – | COc1ccc(N2CCN(Cc3cc(=O)oc4cc(OCc5ccccc5[N+](=O)[O-])ccc34)CC2)cc1
10 | < 4.00 | 6.05 | < 4.00 | – | – | COc1ccc(N2CCN(Cc3cc(=O)oc4cc(OCc5ccc(Br)cc5)ccc34)CC2)cc1
11 | < 4.00 | 5.34 | < 4.00 | – | – | O=c1cc(CN2CCN(Cc3ccccc3)CC2)c2ccc(OCc3cccc(Cl)c3)cc2o1
12 | < 4.00 | 5.59 | < 4.00 | – | – | COc1ccc(N2CCN(Cc3cc(=O)oc4cc(OCc5cccc(OC)c5)ccc34)CC2)cc1
13 | < 4.00 | 5.46 | < 4.00 | – | – | COc1ccc(N2CCN(Cc3cc(=O)oc4cc(OCc5cccc(Br)c5)ccc34)CC2)cc1
14 | < 4.00 | 5.58 | < 4.00 | – | – | COc1ccc(N2CCN(Cc3cc(=O)oc4cc(OCc5ccc([N+](=O)[O-])cc5)ccc34)CC2)cc1
15 | < 4.00 | 5.14 | < 4.00 | – | – | COc1ccc(N2CCN(Cc3cc(=O)oc4cc(OCc5cccc(Cl)c5)ccc34)CC2)cc1
16 | < 4.00 | 6.11 | < 4.00 | – | – | Cc1cc(C)cc(COc2ccc3c(CN4CCN(Cc5ccccc5)CC4)cc(=O)oc3c2)c1
17 | < 4.00 | 5.26 | < 4.00 | – | – | COc1ccc(N2CCN(Cc3cc(=O)oc4cc(OCc5ccccc5)ccc34)CC2)cc1
18 | – | – | – | 6.21 | 7.49 | N#Cc1ccc(Cn2cc(COc3ccc4c(CCl)cc(=O)oc4c3)nn2)cc1
19 | < 4.00 | 5.31 | < 4.00 | – | – | O=c1cc(CN2CCN(Cc3ccccc3)CC2)c2ccc(OCc3ccccc3)cc2o1
20 | < 4.00 | 5.50 | < 4.00 | – | – | O=c1cc(CN2CCN(Cc3ccccc3)CC2)c2ccc(OCc3ccc([N+](=O)[O-])cc3)cc2o1
21 | < 4.00 | 5.34 | < 4.00 | – | – | COc1ccc(N2CCN(Cc3cc(=O)oc4cc(OCc5cc(C)cc(C)c5)ccc34)CC2)cc1
